The record followed here is US20230010886A1 (SUZHOU PUHE BIOPHARMA CO., LTD., priority 2019, published 2023).

In the test the target is T1, Full length SHP2 enzyme (Homo sapiens, UniProt Q06124).
T1 construct: Full length SHP2 enzyme (diluted to 0.1 nM in reaction buffer)
T1 sequence (Q06124 1-593): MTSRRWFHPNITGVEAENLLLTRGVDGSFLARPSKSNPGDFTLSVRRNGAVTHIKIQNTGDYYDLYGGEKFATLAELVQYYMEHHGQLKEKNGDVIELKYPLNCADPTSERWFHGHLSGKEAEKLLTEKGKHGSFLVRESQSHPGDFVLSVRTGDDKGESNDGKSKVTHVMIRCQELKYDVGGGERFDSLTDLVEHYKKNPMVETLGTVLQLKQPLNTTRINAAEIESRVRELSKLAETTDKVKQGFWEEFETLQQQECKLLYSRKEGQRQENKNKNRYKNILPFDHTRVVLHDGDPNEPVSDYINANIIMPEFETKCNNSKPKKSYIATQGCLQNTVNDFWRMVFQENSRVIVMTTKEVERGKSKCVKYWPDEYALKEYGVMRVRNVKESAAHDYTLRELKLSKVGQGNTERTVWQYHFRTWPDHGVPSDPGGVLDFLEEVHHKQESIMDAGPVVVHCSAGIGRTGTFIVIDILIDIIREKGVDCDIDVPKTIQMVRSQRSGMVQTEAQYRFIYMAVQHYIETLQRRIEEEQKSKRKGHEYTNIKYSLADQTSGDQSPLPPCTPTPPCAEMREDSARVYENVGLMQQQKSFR
As to the kind of experiment: SHP2 phosphatase assay. Format: biochemical. To be noted: 1 μM IRS-1 peptide, DiFMUP substrate. The protocol:
IC50 values were determined at room temperature in 384-well black polystyrene plate, using a final reaction volume of 15 μL and the following assay buffer conditions: 60 mM Hepes (pH=7.2), 75 mM NaCl, 75 mM KCl, and 1 mM EDTA, 0.05% P-20, 5 mM dithiothreitol (DTT). Full length SHP2 enzyme (diluted to 0.1 nM in reaction buffer) were co-incubated with 1 μM IRS-1 peptide and 0.01 nM to 10 μM compounds of the disclosure for 60 min. The surrogate substrate DiFMUP (5 μL, 100 μM) was added, and incubated at rt for 60 min. The reaction was then quenched by the addition of 5 μL of a 40 μM solution of bpV(Phen). The fluorescence signal was monitored using a microplate reader (Envision, Perkin-Elmer) using excitation and emission wavelengths of 360 nm and 450 nm, respectively. The inhibitor dose-response curves were analyzed using normalized IC50 regression curve fitting with control-based normalization.

Where only a bound is given, the exact number is not on record here.

For orientation: IC50 means the concentration that gives 50% inhibition. Low values mean greater potency in that assay, high ones weaker potency in that assay.

As for `NC1C2CC2CC12CCN(c1ncc(Sc3cccc(Cl)c3Cl)[nH]c1=O)CC2` (stereo not drawn) [Example 13, 3-(2-aminospiro[bicyclo[3.1.0]hexane-3,4′-piperidin]-1′-yl)-6-((2,3-dichlorophenyl)thio)pyrazin-2 (1H)-one], the IC50 is not above 50 nM. In the case of `CN1C(=O)C(C(=O)Nc2cccc(Sc3cnc(N4CCC(C)(CN)CC4)c(=O)[nH]3)c2Cl)=C(O)C1(C)C` [Example 28, N-(3-((5-(4-(aminomethyl)-4-methylpiperidin-1-yl)-6-oxo-1,6-dihydropyrazin-2-yl)thio)-2-chlorophenyl)-4-hydroxy-1,5,5-trimethyl-2-oxo-2,5-dihydro-1H-pyrrole-3-carboxamide] it was not above 50 nM. In the case of `CC1(CN)CCN(c2ncc(Sc3cccc(NC(=O)c4c(O)nc5cnccn5c4=O)c3Cl)[nH]c2=O)CC1` [Example 30, N-(3-((5-(4-(aminomethyl)-4-methylpiperidin-1-yl)-6-oxo-1,6-dihydropyrazin-2-yl)thio)-2-chlorophenyl)-2-hydroxy-4-oxo-4H-pyrazino[1,2-a]pyrimidine-3-carboxamide] it was not above 50 nM; in that of `CC1(CN)CCN(c2ncc(Sc3cccc(NC(=O)c4c(O)nc5[nH]ccn5c4=O)c3Cl)[nH]c2=O)CC1` [Example 32, N-(3-((5-(4-(aminomethyl)-4-methylpiperidin-1-yl)-6-oxo-1,6-dihydropyrazin-2-yl)thio)-2-chlorophenyl)-7-hydroxy-5-oxo-1,5-dihydroimidazo[1,2-a]pyrimidine-6-carboxamide], not above 50 nM. Next, `CC1(CN)CCN(c2ncc(Sc3cccc(NC(=O)c4c(O)nc5n(c4=O)CCCC5)c3Cl)[nH]c2=O)CC1` [Example 33, N-(3-((5-(4-(aminomethyl)-4-methylpiperidin-1-yl)-6-oxo-1,6-dihydropyrazin-2-yl)thio)-2-chlorophenyl)-2-hydroxy-4-oxo-6,7,8,9-tetrahydro-4H-pyrido [1,2-a]pyrimidine-3-carboxamide]: not above 50 nM. In turn, `CC1(CN)CCN(c2nc3[nH]nc(Nc4cccc(Cl)c4Cl)c3c(=O)[nH]2)CC1` [Example 34, 6-(4-(aminomethyl)-4-methylpiperidin-1-yl)-3-((2,3-dichlorophenyl)amino)-1,5-dihydro-4H-pyrazolo[3,4-d]pyrimidin-4-one] came in with an IC50 not above 50 nM. `CC1(CN)CCN(c2nc3[nH]nc(Oc4cccc(Cl)c4Cl)c3c(=O)[nH]2)CC1` [Example 35, 6-(4-(aminomethyl)-4-methylpiperidin-1-yl)-3-(2,3-dichlorophenoxy)-1,5-dihydro-4H-pyrazolo[3,4-d]pyrimidin-4-one] came in with an IC50 not above 50 nM. In the case of `Cn1c(N2CCC(C)(CN)C2)nc(N)c(Sc2cccc(Cl)c2Cl)c1=O` (stereo not drawn) [Example 52, 6-amino-2-(3-(aminomethyl)-3-methylpyrrolidin-1-yl)-5-((2,3-dichlorophenyl)thio)-3-methylpyrimidin-4(3H)-one] it was not above 50 nM. Next, `NC1CCCC(n2ccc(-c3cccc(Cl)c3Cl)cc2=O)C1` (stereo not drawn) [Example 74, 1-(3-aminocyclohexyl)-4-(2,3-dichlorophenyl)pyridin-2(1H)-one]: not above 50 nM. In the case of `C[C@@H]1OCC2(CCN(c3ncc(Sc4ccnc(N)c4Cl)nc3O)CC2)[C@@H]1N` [Example 77, 6-((2-amino-3-chloropyridin-4-yl)thio)-3-((3S,4S)-4-amino-3-methyl-2-oxa-8-azaspiro[4.5]decan-8-yl)pyrazin-2(1H)-one] it was not above 50 nM; in that of `COc1cccc(Sc2cnc(N3CCC4(CC3)CO[C@@H](C)[C@H]4N)c(=O)[nH]2)c1Cl` [Example 79, 3-((3S,4S)-4-amino-3-methyl-2-oxa-8-azaspiro[4.5]decan-8-yl)-6-((2-chloro-3-methoxyphenyl)thio)pyrazin-2 (1H)-one], not above 50 nM. In turn, `COc1nccc(Sc2cnc(N3CCC4(CC3)CO[C@@H](C)[C@H]4N)c(=O)[nH]2)c1Cl` [Example 80, 3-((3S,4S)-4-amino-3-methyl-2-oxa-8-azaspiro[4.5]decan-8-yl)-6-((3-chloro-2-methoxypyridin-4-yl)thio)pyrazin-2(1H)-one] gave an IC50 not above 50 nM. In the case of `NC1C2CN(c3ncc(Sc4cccc(Cl)c4Cl)[nH]c3=O)CC12` (stereo not drawn) [Example 86, 3-(6-amino-3-azabicyclo[3.1.0]hexan-3-yl)-6-((2,3-dichlorophenyl)thio)pyrazin-2(1H)-one] it was not above 50 nM; in that of `N[C@@H]1c2ccccc2OC12CCN(c1ncc(Sc3cccc(Cl)c3Cl)[nH]c1=O)CC2` [Example 87, (R)-3-(3-amino-3H-spiro[benzofuran-2,4′-piperidin]-1′-yl)-6-((2,3-dichlorophenyl)thio)pyrazin-2 (1H)-one], not above 50 nM.

Regarding `N[C@@H]1COCC12CCN(c1ncc(Sc3ccnc(Cl)c3Cl)[nH]c1=O)CC2` [Example 88, (S)-3-(4-amino-2-oxa-8-azaspiro[4.5]decan-8-yl)-6-((2,3-dichloropyridin-4-yl)thio)pyrazin-2(1H)-one], the IC50 is not above 50 nM.

`C[C@@H]1OCC2(CCN(c3ncc(Sc4cc[nH]c(=O)c4Cl)[nH]c3=O)CC2)[C@@H]1N` [Example 107, 3-((3S,4S)-4-amino-3-methyl-2-oxa-8-azaspiro[4.5]decan-8-yl)-6-((3-chloro-2-oxo-1,2-dihydro-pyridin-4-yl)thio)pyrazin-2(1H)-one] registered a concentration for half-maximal inhibition (IC50) not above 50 nM. `N[C@@H]1c2ccccc2CC12CCN(c1ncc(Sc3cccc(Cl)c3Cl)[nH]c1=O)CC2` [Example 108] showed an IC50 not above 50 nM. Next, `NC1c2nc(Cl)sc2CC12CCN(c1ncc(Sc3ccnc(Cl)c3Cl)[nH]c1=O)CC2` (stereo not drawn) [Example 116, 3-(4-amino-2-chloro-4,6-dihydrospiro[cyclopenta[d]thiazole-5,4′-piperidin]-1′-yl)-6-((2,3-dichloropyridin-4-yl)thio)pyrazin-2(1H)-one]: not above 50 nM; `Nc1nccc(Sc2cnc(N3CCC4(CC3)Cc3sc(Cl)nc3C4N)c(=O)[nH]2)c1Cl` (stereo not drawn) [Example 117, 3-(4-amino-2-chloro-4,6-dihydrospiro[cyclopenta[d]thiazole-5,4′-piperidin]-1′-yl)-6-((2-amino-3-chloropyridin-4-yl)thio)pyrazin-2(1H)-one]: not above 50 nM; `N[C@@H]1c2ccccc2OC12CCN(c1ncc(Sc3ccnc(Cl)c3Cl)[nH]c1=O)CC2` [Example 123, (R)-3-(3-amino-3H-spiro[benzofuran-2,4′-piperidin]-1′-yl)-6-((2,3-dichloropyridin-4-yl)thio)pyrazin-2(1H)-one]: not above 50 nM. In turn, `Nc1nccc(Sc2cnc(N3CCC4(CC3)Oc3ccccc3[C@H]4N)c(=O)[nH]2)c1Cl` [Example 124, (R)-6-((2-amino-3-chloropyridin-4-yl)thio)-3-(3-amino-3H-spiro[benzofuran-2,4′-piperidin]-1′-yl)pyrazin-2(1H)-one] yielded an IC50 not above 50 nM. In the case of `C[C@@H]1OCC2(CCN(c3ncc(Sc4cccc(N)c4F)[nH]c3=O)CC2)[C@@H]1N` [Example 126, 6-((3-amino-2-fluorophenyl)thio)-3-((3S,4S)-4-amino-3-methyl-2-oxa-8-azaspiro[4.5]decan-8-yl)pyrazin-2(1H)-one] it was not above 50 nM; in that of `C[C@@H]1OCC2(CCN(c3ncc(Sc4ccnc(N)c4F)[nH]c3=O)CC2)[C@@H]1N` [Example 127, 6-((2-amino-3-fluoropyridin-4-yl)thio)-3-((3S,4S)-4-amino-3-methyl-2-oxa-8-azaspiro[4.5]decan-8-yl)pyrazin-2(1H)-one], not above 1000 nM. Next, `C[C@@H]1OCC2(CCN(c3ncc(Sc4ccncc4Cl)[nH]c3=O)CC2)[C@@H]1N` [Example 128, 3-((3S,4S)-4-amino-3-methyl-2-oxa-8-azaspiro[4.5]decan-8-yl)-6-((3-chloropyridin-4-yl)thio) pyrazin-2(1H)-one]: not above 50 nM; `Nc1nccc(Sc2cnc(N3CCC4(CC3)Cc3scnc3C4N)c(=O)[nH]2)c1Cl` (stereo not drawn) [Example 130, 6-((2-amino-3-chloropyridin-4-yl)thio)-3-(4-amino-4,6-dihydrospiro[cyclopenta[d]thiazole-5,4′-piperidin]-1′-yl)pyrazin-2(1H)-one]: not above 50 nM; `COc1ccc2c(c1)CC1(CCN(c3ncc(Sc4cccc(Cl)c4Cl)[nH]c3=O)CC1)[C@@H]2N` [Example 131, (S)-3-(1-amino-5-methoxy-1,3-dihydrospiro[indene-2,4′-piperidin]-1′-yl)-6-((2,3-dichlorophenyl)thio)pyrazin-2 (1H)-one]: not above 50 nM. Take `N[C@@H]1c2ccccc2NC12CCN(c1ncc(Sc3cccc(Cl)c3Cl)[nH]c1=O)CC2` [Example 132, (R)-3-(3-aminospiro[indoline-2,4′-piperidin]-1′-yl)-6-((2,3-dichlorophenyl)thio)pyrazin-2 (1H)-one]: the IC50 is not above 50 nM.
